Measurements taken from PMC12372887, “Mechanism and cellular actions of the potent AMPK inhibitor BAY-3827” (Science Advances, 2025).

Tests used:
Assay in all cases: Kinase panel (140 human kinases)
Assay type in all cases: biochemical
Aurora A = Aurora A (Homo sapiens, UniProt O14965)
Procedure, shortened: (§1)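 Single-point profiling at 0.1 μM; BAY-3827 also at 1 μM. ^33P-ATP radiometric filter-binding format, duplicates. ATP 5/20/50 μM (≤ Km for each enzyme). Readout: % residual activity, mean ± SD.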

Aurora B = Aurora B (Homo sapiens, UniProt Q96GD4)
Chain of Aurora B (Q96GD4 whole entry): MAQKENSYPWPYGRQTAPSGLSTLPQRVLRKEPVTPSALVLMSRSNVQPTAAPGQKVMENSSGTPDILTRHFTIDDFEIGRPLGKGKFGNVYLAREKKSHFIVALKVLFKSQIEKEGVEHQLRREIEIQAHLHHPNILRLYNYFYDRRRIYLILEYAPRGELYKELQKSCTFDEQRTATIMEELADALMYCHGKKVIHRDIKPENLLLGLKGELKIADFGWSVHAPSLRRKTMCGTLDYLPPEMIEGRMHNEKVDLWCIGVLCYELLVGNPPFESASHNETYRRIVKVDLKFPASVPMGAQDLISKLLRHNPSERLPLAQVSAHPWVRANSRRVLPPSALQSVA
Procedure, shortened: as §1

CAMKKb = CAMKKb (Homo sapiens, UniProt Q96RR4)
Procedure, shortened: as §1

CDK2-Cyclin A = CDK2-Cyclin A (Homo sapiens, UniProt P24941)
Procedure, shortened: as §1

CHK2 = CHK2 (Homo sapiens, UniProt O96017)
Procedure, shortened: as §1

CK2 = CK2 (Homo sapiens, UniProt P68400)
Chain of CK2 (P68400 whole entry): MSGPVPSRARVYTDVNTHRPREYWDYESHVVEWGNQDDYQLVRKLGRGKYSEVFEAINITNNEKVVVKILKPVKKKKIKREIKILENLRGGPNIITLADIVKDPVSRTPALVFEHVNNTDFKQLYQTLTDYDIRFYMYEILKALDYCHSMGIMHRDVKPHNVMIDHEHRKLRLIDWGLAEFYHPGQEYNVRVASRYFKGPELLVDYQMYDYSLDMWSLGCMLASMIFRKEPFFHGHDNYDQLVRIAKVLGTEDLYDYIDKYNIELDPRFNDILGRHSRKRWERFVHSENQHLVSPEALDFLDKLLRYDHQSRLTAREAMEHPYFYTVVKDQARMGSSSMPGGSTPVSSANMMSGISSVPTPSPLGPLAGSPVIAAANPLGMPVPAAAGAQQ
Procedure, shortened: as §1

EPH-A4 = EPH-A4 (Homo sapiens, UniProt P54764)
Procedure, shortened: as §1

EPH-B4 = EPH-B4 (Homo sapiens, UniProt P54760)
Procedure, shortened: as §1

ERK1 = ERK1 (Homo sapiens, UniProt P27361)
Chain of ERK1 (P27361 whole entry): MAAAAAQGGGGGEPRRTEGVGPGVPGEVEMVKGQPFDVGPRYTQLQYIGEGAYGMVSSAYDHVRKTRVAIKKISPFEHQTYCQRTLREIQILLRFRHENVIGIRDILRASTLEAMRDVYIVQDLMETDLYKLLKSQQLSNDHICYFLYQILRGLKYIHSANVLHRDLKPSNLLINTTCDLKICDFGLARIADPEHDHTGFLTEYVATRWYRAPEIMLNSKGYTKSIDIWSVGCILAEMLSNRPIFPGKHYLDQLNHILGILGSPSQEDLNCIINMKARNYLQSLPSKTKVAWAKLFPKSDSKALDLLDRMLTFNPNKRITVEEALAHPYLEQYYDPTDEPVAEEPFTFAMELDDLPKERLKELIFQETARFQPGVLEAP
Procedure, shortened: as §1

ERK2 = ERK2 (Homo sapiens, UniProt P28482)
Procedure, shortened: as §1

HER4 = HER4 (Homo sapiens, UniProt Q15303)
Procedure, shortened: as §1

IKKb = target: T1, IKKb (Homo sapiens, UniProt O14920)
T1 sequence (O14920 1-756): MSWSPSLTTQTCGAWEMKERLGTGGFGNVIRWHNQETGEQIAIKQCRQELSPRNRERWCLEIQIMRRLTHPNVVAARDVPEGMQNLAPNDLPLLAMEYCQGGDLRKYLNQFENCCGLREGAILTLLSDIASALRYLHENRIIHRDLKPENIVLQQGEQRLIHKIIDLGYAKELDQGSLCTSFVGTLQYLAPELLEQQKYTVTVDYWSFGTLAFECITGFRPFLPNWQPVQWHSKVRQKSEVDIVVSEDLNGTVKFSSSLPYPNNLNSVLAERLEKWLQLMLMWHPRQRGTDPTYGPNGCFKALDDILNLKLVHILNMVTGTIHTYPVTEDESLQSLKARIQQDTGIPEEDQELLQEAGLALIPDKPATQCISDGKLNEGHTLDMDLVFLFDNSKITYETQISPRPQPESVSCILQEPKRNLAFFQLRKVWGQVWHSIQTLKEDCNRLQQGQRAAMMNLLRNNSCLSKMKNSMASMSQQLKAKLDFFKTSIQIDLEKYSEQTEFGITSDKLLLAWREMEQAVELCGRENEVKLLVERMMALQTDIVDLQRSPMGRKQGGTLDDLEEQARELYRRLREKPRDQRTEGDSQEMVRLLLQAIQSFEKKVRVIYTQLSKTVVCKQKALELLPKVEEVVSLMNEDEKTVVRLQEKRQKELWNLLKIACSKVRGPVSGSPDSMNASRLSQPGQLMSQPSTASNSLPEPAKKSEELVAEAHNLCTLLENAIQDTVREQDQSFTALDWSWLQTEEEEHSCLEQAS
Procedure, shortened: as §1

IRAK1 = IRAK1 (Homo sapiens, UniProt P51617)
Chain of IRAK1 (P51617 whole entry): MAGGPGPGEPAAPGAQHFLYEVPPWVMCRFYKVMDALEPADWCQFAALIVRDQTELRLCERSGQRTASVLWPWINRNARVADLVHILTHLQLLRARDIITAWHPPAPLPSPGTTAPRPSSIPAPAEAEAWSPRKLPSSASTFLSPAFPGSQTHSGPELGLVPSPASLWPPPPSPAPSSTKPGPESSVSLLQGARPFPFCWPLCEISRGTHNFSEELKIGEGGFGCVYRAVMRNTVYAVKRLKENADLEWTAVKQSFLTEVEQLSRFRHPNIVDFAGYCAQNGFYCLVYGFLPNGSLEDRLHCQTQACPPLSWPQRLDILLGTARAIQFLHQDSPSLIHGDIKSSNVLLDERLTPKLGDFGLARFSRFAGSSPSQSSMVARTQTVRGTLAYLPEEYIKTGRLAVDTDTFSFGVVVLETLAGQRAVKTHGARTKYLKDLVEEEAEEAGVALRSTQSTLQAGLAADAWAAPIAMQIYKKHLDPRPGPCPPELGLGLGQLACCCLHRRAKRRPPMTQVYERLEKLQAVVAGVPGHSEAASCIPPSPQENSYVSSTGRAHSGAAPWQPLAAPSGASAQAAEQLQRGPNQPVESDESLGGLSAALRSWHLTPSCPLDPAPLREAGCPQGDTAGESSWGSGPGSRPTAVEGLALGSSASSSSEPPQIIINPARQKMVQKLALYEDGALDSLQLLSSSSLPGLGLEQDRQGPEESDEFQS
Procedure, shortened: as §1

IRR = IRR (Homo sapiens, UniProt P14616)
Procedure, shortened: as §1

JNK3 = JNK3 (Homo sapiens, UniProt P53779)
Procedure, shortened: as §1

MEKK1 = MEKK1 (Homo sapiens, UniProt Q13233)
Procedure, shortened: as §1

MINK1 = MINK1 (Homo sapiens, UniProt Q8N4C8)
Chain of MINK1 (Q8N4C8 whole entry): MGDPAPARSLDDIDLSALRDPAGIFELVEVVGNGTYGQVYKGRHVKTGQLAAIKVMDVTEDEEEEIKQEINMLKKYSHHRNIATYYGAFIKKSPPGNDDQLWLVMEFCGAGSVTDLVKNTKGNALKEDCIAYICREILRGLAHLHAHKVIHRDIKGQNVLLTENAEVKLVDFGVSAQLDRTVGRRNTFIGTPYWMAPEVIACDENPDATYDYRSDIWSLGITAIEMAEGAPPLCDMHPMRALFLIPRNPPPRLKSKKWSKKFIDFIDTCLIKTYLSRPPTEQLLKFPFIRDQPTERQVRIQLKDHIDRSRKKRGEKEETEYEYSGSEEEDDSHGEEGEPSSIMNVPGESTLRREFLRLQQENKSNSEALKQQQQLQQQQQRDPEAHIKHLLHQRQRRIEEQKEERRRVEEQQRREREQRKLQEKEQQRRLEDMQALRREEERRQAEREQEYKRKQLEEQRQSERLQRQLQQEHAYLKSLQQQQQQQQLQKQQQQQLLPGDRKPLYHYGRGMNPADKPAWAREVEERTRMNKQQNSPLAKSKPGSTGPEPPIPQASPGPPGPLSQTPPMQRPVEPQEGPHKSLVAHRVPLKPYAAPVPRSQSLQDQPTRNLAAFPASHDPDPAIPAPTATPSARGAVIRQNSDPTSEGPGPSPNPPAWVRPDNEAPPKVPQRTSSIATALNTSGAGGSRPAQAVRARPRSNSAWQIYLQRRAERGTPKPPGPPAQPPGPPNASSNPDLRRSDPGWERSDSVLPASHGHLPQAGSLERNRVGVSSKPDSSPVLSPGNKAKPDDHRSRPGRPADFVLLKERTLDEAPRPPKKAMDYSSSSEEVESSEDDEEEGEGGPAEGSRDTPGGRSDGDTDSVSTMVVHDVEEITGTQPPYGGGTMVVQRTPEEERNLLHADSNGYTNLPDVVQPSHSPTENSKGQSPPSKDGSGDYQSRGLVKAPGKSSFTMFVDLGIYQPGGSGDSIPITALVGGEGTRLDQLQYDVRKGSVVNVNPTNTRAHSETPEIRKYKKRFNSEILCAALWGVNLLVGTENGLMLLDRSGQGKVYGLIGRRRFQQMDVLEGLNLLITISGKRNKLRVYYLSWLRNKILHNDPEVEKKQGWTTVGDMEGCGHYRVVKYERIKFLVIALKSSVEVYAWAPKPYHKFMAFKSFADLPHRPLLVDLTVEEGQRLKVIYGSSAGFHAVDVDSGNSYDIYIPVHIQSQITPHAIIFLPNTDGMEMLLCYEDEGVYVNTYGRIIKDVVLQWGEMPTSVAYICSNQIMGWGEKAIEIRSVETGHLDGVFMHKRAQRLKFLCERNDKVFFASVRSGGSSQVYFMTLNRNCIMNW
Procedure, shortened: as §1

MKK1 = MKK1 (Homo sapiens, UniProt Q02750)
Chain of MKK1 (Q02750 whole entry): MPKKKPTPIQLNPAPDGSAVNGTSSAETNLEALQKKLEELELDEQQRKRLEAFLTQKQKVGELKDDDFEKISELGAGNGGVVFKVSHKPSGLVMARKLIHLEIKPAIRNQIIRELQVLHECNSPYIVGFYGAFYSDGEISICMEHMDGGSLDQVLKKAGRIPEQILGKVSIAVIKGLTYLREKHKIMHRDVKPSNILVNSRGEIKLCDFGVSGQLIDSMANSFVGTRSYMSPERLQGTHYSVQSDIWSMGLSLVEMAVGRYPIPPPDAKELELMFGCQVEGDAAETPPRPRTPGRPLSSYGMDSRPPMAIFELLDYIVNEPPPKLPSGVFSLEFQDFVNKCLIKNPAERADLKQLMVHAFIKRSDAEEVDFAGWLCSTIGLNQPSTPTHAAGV
Procedure, shortened: as §1

MLK3 = MLK3 (Homo sapiens, UniProt Q16584)
Procedure, shortened: as §1

NEK2a = NEK2a (Homo sapiens, UniProt P51955)
Procedure, shortened: as §1

PAK4 = PAK4 (Homo sapiens, UniProt O96013)
Procedure, shortened: as §1

PAK6 = PAK6 (Homo sapiens, UniProt Q9NQU5)
Procedure, shortened: as §1

PKA = PKA (Homo sapiens, UniProt P17612)
Procedure, shortened: as §1

PKBa = PKBa (Homo sapiens, UniProt P31749)
Procedure, shortened: as §1

RSK1 = RSK1 (Homo sapiens, UniProt Q15418)
Chain of RSK1 (Q15418 whole entry): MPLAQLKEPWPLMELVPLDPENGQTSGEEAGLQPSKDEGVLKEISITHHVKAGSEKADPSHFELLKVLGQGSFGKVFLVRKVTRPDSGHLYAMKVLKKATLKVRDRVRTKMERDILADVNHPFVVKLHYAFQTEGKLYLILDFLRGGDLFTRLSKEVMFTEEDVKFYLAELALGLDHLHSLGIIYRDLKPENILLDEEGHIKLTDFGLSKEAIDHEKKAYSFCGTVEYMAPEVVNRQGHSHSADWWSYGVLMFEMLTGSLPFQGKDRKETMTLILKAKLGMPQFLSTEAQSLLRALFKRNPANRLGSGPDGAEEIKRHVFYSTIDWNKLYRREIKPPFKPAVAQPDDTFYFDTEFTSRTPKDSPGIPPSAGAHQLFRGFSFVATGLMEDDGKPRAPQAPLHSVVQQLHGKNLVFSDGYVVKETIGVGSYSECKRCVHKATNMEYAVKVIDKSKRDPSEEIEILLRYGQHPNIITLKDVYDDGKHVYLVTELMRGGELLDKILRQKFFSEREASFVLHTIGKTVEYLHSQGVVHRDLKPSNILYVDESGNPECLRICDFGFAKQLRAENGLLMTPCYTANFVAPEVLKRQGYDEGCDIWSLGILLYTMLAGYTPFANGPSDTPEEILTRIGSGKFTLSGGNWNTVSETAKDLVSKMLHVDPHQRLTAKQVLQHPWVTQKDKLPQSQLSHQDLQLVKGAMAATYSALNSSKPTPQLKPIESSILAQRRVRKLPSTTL
Procedure, shortened: as §1

RSK2 = RSK2 (Homo sapiens, UniProt P51812)
Chain of RSK2 (P51812 whole entry): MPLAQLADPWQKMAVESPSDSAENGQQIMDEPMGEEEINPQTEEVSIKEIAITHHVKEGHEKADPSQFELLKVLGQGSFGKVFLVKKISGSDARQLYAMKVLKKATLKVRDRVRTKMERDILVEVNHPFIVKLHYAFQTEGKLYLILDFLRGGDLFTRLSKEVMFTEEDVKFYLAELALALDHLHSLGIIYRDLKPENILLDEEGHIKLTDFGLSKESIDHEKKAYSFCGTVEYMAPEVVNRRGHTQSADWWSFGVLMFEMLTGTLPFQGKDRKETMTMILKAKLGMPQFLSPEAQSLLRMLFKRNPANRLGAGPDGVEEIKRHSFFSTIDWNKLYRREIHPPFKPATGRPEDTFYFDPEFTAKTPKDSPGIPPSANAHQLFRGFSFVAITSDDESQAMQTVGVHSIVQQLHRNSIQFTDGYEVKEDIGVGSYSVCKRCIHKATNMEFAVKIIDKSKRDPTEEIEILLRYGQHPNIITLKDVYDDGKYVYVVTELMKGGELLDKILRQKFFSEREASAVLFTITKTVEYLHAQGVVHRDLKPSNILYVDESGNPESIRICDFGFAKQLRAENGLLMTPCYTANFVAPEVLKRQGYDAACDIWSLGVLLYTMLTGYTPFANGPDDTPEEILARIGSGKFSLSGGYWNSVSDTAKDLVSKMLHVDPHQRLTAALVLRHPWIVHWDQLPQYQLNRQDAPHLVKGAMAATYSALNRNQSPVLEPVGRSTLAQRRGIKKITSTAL
Procedure, shortened: as §1

S6K1 = S6K1 (Homo sapiens, UniProt P23443)
Procedure, shortened: as §1

SIK2 = SIK2 (Homo sapiens, UniProt Q9H0K1)
Procedure, shortened: as §1

SYK = SYK (Homo sapiens, UniProt P43405)
Procedure, shortened: as §1

VEG-FR = conditions: 0.1 μM
Procedure, shortened: as §1

p38g MAPK = p38g MAPK (Homo sapiens, UniProt P53778)
Procedure, shortened: as §1

[1] = 1 μM, cross-referenced with screen data of ref 37, read-out: activity remaining after treatment

SMILES | remaining activity at 0.1 µM (Aurora A) [%] | remaining activity at 0.1 µM (Aurora B) [%] | remaining activity at 0.1 µM (CAMKKb) [%] | remaining activity at 0.1 µM (CDK2-Cyclin A) [%] | remaining activity at 0.1 µM (CHK2) [%] | remaining activity at 0.1 µM (CK2) [%] | remaining activity at 0.1 µM (EPH-A4) [%] | remaining activity at 0.1 µM (EPH-B4) [%] | remaining activity at 0.1 µM (ERK1) [%] | remaining activity at 0.1 µM (ERK2) [%] | remaining activity at 0.1 µM (HER4) [%] | remaining activity at 0.1 µM (IKKb) [%] | inhibition at 0.1 µM (IRAK1) [%] | remaining activity at 0.1 µM (IRR) [%] | remaining activity at 0.1 µM (JNK3) [%] | remaining activity at 0.1 µM (MEKK1) [%] | remaining activity at 0.1 µM (MINK1) [%] | remaining activity at 0.1 µM (MKK1) [%] | remaining activity at 0.1 µM (MLK3) [%] | remaining activity at 0.1 µM (NEK2a) [%] | also measured
CC1=C(C#N)C(c2ccc3c(c2)c(NC(=O)c2ccccc2C)nn3C)C(C#N)=C(C)N1 [BAY-974, N-[5-(3,5-dicyano-2,6-dimethyl-1,4-dihydropyridin-4-yl)-1-methylindazol-3-yl]-2-methylbenzamide] | 79 | 62 | 107 | 96 | 87 | 79 | 81 | 116 | 103 | 110 | 93 | 89 | 55 to 90 | 88 | 104 | 99 | 79 | 100 | 90 | 121 | remaining activity at 0.1 µM (PAK4): 96%; remaining activity at 0.1 µM (PAK6): 102%; remaining activity at 0.1 µM (PKA): 103%; remaining activity at 0.1 µM (PKBa): 95%; remaining activity at 0.1 µM (RSK1; 0.1 μM): 66%; remaining activity at 0.1 µM (RSK2): 117%; remaining activity at 0.1 µM (S6K1): 97%; remaining activity at 0.1 µM (SIK2): 88%; inhibition at 0.1 µM (SYK): 55 to 90%; Kinase activity remaining (%) (VEG-FR): 95%; remaining activity at 0.1 µM (p38g MAPK): 95%
CCc1ccccc1C(=O)Nc1n[nH]c2c(C)c(F)c(C3C(C#N)=C(C)N(C)C(C)=C3C#N)cc12 [BAY-3827, N-[5-(3,5-dicyano-1,2,6-trimethyl-4H-pyridin-4-yl)-6-fluoro-7-methyl-1H-indazol-3-yl]-2-ethylbenzamide] | 90 | ≤ 50 | 97 | 99 | 93 | 85 | 94 | 109 | 105 | 116 | 135 | 105 | ~60 | 89 | 88 | 97 | ≤ 50 | 100 | 85 | 122 | inhibition at 0.1 µM (Aurora B): ~60%; remaining activity at 1 µM (CDK2-Cyclin A; 1 μM, CDK2, cross-referenced with screen data of ref 37, read-out: activity remaining after treatment): ≥ 99%; remaining activity at 1 µM (IKKb; 1 μM, IKKβ, cross-referenced with screen data of ref 37, read-out: activity remaining after treatment): ≥ 99%; remaining activity at 0.1 µM (IRAK1): ≤ 50%; inhibition at 0.1 µM (MINK1): ~60%; remaining activity at 0.1 µM (PAK4): 80%; remaining activity at 0.1 µM (PAK6): 106%; remaining activity at 0.1 µM (PKA): 94%; remaining activity at 0.1 µM (PKBa): 95%; inhibition at 0.1 µM (RSK1; 0.1 μM): 80 to 85%; remaining activity at 1 µM (RSK1; [1]): ≤ 50%; remaining activity at 0.1 µM (RSK2): 90%; remaining activity at 1 µM (RSK2; [1]): ≤ 50%; remaining activity at 0.1 µM (S6K1): 87%; remaining activity at 0.1 µM (SIK2): 107%; remaining activity at 0.1 µM (SYK): 91%; Kinase activity remaining (%) (VEG-FR): 89%; remaining activity at 0.1 µM (p38g MAPK): 90%
